{"source": "patent US11999701B1", "about": "“4,5-bis(4-chlorophenyl)-2-phenyl-1H-imidazol-1-yl as an antimicrobial compound” (KING FAISAL UNIVERSITY, priority 2023, dated 2024)", "format_in_all_cases": "cell-based", "key": {"Aspergillus flavus": {"tested_on": "Aspergillus flavus", "test": "Agar plate disc-diffusion, antifungal activity", "procedure": "(§1) The agar plate disc-diffusion method was applied. […] The discs were then placed onto the surface of agar plates (nutrient agar for bacteria and Sabouraud's dextrose agar for fungi) seeded with the test organism. Each plate contained 15 mL of the agar medium, previously seeded with 0.2 mL of the broth culture of each organism pregrown for 18 hours. The plates were incubated at 37 °C for 48 h, and 72 h for fungi. The inhibition zones were measured in mm. Discs impregnated with DMSO were used as a control, and its inhibition zone was subtracted from the tested compound actual inhibition zone."}, "[1]": {"tested_on": "Chrysosporium keratinophilum", "test": "Agar plate disc-diffusion, antifungal activity", "procedure": "as §1"}, "Staphylococcus aureus": {"tested_on": "Staphylococcus aureus", "test": "Agar plate disc-diffusion, antibacterial activity", "procedure": "as §1"}, "Bacillus cereus": {"tested_on": "Bacillus cereus", "test": "Agar plate disc-diffusion, antibacterial activity", "procedure": "as §1"}, "Pseudomonas aeruginosa": {"tested_on": "Pseudomonas aeruginosa", "test": "Agar plate disc-diffusion, antibacterial activity", "procedure": "as §1"}, "Escherichia coli": {"tested_on": "Escherichia coli", "test": "Agar plate disc-diffusion, antibacterial activity", "procedure": "as §1"}, "different microbes": {"tested_on": "different microbes", "test": "Antimicrobial activity, overall statement", "conditions": "against different microbes (bacteria and fungi of Tables 1 and 2)", "procedure": "The agar plate disc-diffusion method was applied. Sterilized filter papers (6 mm in diameter) were wetted with 10 μL of a solution of 4,5-bis(4-chlorophenyl)-2-phenyl-1H-imidazole (IV) to be tested, containing 10 mg/mL in DMSO, and the discs were allowed to air dry. The discs were then placed onto the surface of agar plates (nutrient agar for bacteria and Sabouraud's dextrose agar for fungi) seeded with the test organism. Each plate contained 15 mL of the agar medium, previously seeded with 0.2 mL of the broth culture of each organism pregrown for 18 hours. The plates were incubated at 37 °C for 48 h, and 72 h for fungi. The inhibition zones were measured in mm. Discs impregnated with DMSO were used as a control, and its inhibition zone was subtracted from the tested compound actual inhibition zone."}, "[2]": {"conditions": "A = concentration of comp. = 10,000 μL"}, "[3]": {"conditions": "B = concentration of comp. = 30,000 μL"}, "[4]": {"conditions": "C = concentration of comp. = 50,000 μL"}}}
{"smiles": "Clc1ccc(-c2nc(-c3ccccc3)[nH]c2-c2ccc(Cl)cc2)cc1", "note": "[IV, 4,5-bis(4-chlorophenyl)-2-phenyl-1H-imidazole]", "values": [{"measurement": "inhibition zone", "setting": "Aspergillus flavus; [2]", "value": 22, "unit": "mm"}, {"measurement": "inhibition zone", "setting": "Aspergillus flavus; [3]", "value": 25, "unit": "mm"}, {"measurement": "inhibition zone", "setting": "Aspergillus flavus; [4]", "value": 32, "unit": "mm"}, {"measurement": "inhibition zone", "setting": "[1]; [2]", "value": 26, "unit": "mm"}, {"measurement": "inhibition zone", "setting": "[1]; [3]", "value": 28, "unit": "mm"}, {"measurement": "inhibition zone", "setting": "[1]; [4]", "value": 46, "unit": "mm"}, {"measurement": "inhibition zone", "setting": "Staphylococcus aureus; [2]", "value": 20, "unit": "mm"}, {"measurement": "inhibition zone", "setting": "Staphylococcus aureus; [3]", "value": 24, "unit": "mm"}, {"measurement": "inhibition zone", "setting": "Staphylococcus aureus; [4]", "value": 33, "unit": "mm"}, {"measurement": "inhibition zone", "setting": "Bacillus cereus; [2]", "value": 22, "unit": "mm"}, {"measurement": "inhibition zone", "setting": "Bacillus cereus; [3]", "value": 24, "unit": "mm"}, {"measurement": "inhibition zone", "setting": "Bacillus cereus; [4]", "value": 36, "unit": "mm"}, {"measurement": "inhibition zone", "setting": "Pseudomonas aeruginosa; [2]", "value": 25, "unit": "mm"}, {"measurement": "inhibition zone", "setting": "Pseudomonas aeruginosa; [3]", "value": 28, "unit": "mm"}, {"measurement": "inhibition zone", "setting": "Pseudomonas aeruginosa; [4]", "value": 46, "unit": "mm"}, {"measurement": "inhibition zone", "setting": "Escherichia coli; [2]", "value": 27, "unit": "mm"}, {"measurement": "inhibition zone", "setting": "Escherichia coli; [3]", "value": 34, "unit": "mm"}, {"measurement": "inhibition zone", "setting": "Escherichia coli; [4]", "value": 52, "unit": "mm"}, {"measurement": "antimicrobial activities", "setting": "different microbes", "value": "excellent antimicrobial activities"}]}
